# Results as given in patent US11708367B2, “Compounds for the treatment of kinase-dependent disorders” (Exelixis, Inc., priority 2018, dated 2023).
# How the values were obtained:
# Format in all cases: cell-based
# AXL = AXL (Homo sapiens (Human), UniProt P30530); test: AXL autophosphorylation ELISA in A-172 cells; conditions: cellular, Gas6-stimulated, phospho-AXL ELISA
# In short: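 A-172 glioblastoma cells, serum-starved 24 h, got 8-point compound dilutions (0.3% DMSO) for 1 h, then 1 μg/mL human Gas6 for 15 min. Phospho-AXL in lysates was quantified by ELISA against a standard, normalized between DMSO and reference-inhibitor controls; IC50 by 4-parameter logistic fit.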
# Mer = Mer (Homo sapiens (Human), UniProt Q12866); test: Mer autophosphorylation ELISA in transient transfected 293A cells; conditions: cellular, MERTK-transfected 293A cells, phospho-Mer ELISA
# Method: 293A cells (Thermo Fisher #R70507) were seeded at 1.5×10^6 cells/well onto 100 mm dish (Greiner #664169), in DMEM (Thermo Fisher #11995-040) containing 10% FBS (Thermo Fisher #26140-079), 1% MEM NEAA (Thermo Fisher #11140-050), 1% GlutaMax (Thermo Fisher #35050-061), and 1% Penicillin Streptomycin (Thermo Fisher #15140-122). 293A cells were incubated at 37° C., 5% CO2 for 24 h and then transfected with 6 μg MERTK DNA (Genecopoeia #EX-Z8208-M02) using TransIT LT1 transfection reagent (Mirus-Bio #MIR2305). After 24 h incubation, the transfected 293A cells were seeded at 1×10^5 cells/well onto 96-well plates (Corning #3904) in DMEM growth medium overnight. Test compounds were serially diluted to produce an 8-point dose curve in fresh serum-free medium to a final concentration of 0.3% DMSO (vehicle) and added to the cells and incubated for 1 h. Cells were then immediately lysed with 150 μL of cold IX lysis buffer [20 mM Tris, 137 mM sodium chloride, 2 mM EDTA, 10% glycerol, 1% NP-40 alternative, 1 mM activated sodium orthovanadate, 1 mM PefaBloc SC (Sigma-Aldrich #11429868001), protease/phosphatase inhibitor tablet (Thermo Fisher #A32959)]. Lysates were clarified by centrifugation and 50 μL/well added into the human phospho-Mer DuoSet IC ELISA (R&D Systems #DYC2579-2). Assay was performed according to manufacturer's instructions and sample phospho-Mer concentrations were extrapolated using human phospho-Mer control (R&D Systems #841793) as a standard. Positive control wells (100% activity) contained DMSO-treated cell lysates. Negative control wells (0% activity) contained reference inhibitor-treated cell lysates. IC50 values were calculated by nonlinear regression analysis using a 4-parameter logistic curve fit in ActivityBase XE (IDBS).
# Met = Met (Homo sapiens (Human), UniProt P08581); test: Met autophosphorylation ELISA in PC-3 cells; conditions: cellular, HGF-stimulated, phospho-Met ELISA, read-out: c-Met IC50
# In short: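 Serum-starved PC-3 cells treated 1 h with compound (8-point series, 0.3% DMSO), then stimulated 10 min with 100 ng/mL HGF. Phospho-Met (panTyr) quantified in lysates by sandwich ELISA; IC50 from 4-parameter logistic fit against DMSO and reference-inhibitor controls.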
# Mer, sequence (Q12866 21-999): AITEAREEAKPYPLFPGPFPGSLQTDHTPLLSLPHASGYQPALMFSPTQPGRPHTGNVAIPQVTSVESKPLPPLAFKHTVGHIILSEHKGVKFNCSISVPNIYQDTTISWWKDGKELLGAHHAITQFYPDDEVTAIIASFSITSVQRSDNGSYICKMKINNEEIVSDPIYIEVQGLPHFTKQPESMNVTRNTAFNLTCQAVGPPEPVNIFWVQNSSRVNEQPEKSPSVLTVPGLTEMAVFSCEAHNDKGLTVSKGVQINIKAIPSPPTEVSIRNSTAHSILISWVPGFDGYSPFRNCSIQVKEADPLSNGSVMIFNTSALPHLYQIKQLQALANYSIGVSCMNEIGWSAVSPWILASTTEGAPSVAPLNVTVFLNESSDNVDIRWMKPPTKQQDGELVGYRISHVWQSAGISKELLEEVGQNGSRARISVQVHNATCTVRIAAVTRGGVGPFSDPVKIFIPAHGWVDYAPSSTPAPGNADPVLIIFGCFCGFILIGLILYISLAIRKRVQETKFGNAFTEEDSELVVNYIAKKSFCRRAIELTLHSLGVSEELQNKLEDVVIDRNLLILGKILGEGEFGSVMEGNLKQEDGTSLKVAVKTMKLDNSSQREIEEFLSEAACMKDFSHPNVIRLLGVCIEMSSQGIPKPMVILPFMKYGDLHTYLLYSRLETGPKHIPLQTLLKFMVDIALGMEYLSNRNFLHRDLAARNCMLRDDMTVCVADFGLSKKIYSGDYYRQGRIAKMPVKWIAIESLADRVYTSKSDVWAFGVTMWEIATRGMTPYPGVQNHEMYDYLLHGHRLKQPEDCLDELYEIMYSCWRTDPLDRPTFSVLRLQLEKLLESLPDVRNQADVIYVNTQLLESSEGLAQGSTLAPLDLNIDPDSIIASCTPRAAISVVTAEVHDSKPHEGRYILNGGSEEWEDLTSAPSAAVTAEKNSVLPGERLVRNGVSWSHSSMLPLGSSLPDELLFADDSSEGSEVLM
# Met, sequence (P08581 25-1390): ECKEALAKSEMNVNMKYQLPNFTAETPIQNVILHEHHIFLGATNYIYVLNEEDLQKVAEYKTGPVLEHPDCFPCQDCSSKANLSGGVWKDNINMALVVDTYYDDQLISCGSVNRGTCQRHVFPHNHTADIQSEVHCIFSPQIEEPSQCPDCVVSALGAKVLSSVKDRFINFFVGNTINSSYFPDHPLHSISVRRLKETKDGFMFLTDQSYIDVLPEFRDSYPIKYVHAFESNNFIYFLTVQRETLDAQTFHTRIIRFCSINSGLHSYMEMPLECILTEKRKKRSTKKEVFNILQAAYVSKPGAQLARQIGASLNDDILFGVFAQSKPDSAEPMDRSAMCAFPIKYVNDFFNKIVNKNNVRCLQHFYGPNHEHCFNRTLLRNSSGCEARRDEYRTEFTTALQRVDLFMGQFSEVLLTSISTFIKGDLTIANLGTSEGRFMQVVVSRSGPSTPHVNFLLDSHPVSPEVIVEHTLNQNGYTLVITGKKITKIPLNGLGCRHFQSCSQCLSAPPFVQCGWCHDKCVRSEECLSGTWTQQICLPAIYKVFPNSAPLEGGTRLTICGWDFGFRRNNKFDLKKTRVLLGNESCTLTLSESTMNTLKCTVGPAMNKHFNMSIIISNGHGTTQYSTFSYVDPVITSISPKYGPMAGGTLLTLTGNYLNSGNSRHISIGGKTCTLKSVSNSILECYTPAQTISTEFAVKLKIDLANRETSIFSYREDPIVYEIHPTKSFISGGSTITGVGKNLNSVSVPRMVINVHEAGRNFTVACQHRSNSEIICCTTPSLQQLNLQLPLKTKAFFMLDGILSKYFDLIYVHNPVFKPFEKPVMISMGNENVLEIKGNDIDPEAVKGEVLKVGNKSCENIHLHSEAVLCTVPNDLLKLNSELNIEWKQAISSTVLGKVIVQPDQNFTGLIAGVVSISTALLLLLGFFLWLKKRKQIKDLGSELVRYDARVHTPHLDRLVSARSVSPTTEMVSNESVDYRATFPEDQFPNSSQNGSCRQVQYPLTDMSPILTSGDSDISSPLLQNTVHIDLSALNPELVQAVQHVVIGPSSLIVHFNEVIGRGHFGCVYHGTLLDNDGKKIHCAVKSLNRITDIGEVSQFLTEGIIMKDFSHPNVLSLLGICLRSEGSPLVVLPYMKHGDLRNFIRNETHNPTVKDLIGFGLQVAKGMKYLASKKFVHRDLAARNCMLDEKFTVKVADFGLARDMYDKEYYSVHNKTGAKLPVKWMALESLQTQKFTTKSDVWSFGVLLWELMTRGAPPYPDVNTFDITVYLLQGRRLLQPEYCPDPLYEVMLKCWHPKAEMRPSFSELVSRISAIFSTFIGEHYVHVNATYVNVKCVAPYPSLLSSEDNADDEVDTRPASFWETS
# AXL, sequence (P30530 26-894): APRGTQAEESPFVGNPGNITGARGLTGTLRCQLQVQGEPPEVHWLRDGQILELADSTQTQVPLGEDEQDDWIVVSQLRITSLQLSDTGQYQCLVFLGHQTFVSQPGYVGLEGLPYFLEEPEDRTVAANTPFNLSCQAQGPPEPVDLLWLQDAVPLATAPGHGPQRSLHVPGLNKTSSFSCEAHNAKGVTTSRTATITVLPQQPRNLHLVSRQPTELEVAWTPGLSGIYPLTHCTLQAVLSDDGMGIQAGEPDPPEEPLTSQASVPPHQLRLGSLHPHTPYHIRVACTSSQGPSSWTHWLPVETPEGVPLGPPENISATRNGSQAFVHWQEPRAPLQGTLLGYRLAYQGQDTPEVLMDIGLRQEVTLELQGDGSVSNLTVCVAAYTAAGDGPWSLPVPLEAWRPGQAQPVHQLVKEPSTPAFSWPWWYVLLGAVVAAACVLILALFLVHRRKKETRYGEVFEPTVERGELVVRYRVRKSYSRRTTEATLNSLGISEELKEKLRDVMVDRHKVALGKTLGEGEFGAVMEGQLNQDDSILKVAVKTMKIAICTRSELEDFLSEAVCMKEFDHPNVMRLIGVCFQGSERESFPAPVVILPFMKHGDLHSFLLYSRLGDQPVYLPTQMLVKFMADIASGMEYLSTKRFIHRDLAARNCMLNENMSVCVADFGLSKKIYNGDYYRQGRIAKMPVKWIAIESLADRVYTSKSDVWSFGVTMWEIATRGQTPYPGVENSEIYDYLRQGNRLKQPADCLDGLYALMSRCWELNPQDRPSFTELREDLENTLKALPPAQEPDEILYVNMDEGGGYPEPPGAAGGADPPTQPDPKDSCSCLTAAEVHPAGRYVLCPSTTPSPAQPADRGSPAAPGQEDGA
Structure (SMILES),IC50 (AXL),IC50 (Mer),IC50 (Met)
"COc1cc2ncnc(Oc3ccc(NC(=O)C4(C(=O)Nc5ccc(F)cc5)CC4)cc3)c2nc1OC [Compound 28, 1-N-[4-(6,7-dimethoxy-pyrido[3,2-d]pyrimidin-4-yl)oxyphenyl]-1-N′-(4-fluorophenyl)cyclo-propane-1,1-dicarboxamide]",10 to 100 nM,10 to 100 nM,100 to 300 nM
"COc1nc2c(Oc3ccc(NC(=O)C4(C(=O)Nc5ccc(F)cc5)CC4)cc3Cl)ncnc2cc1OCCCN1CCOCC1 [Compound 66, 1-N′-[3-chloro-4-[6-methoxy-7-(3-morpholin-4-ylpropoxy)pyrido[3,2-d]pyrimidin-4-yl]oxyphenyl]-1-N-(4-fluorophenyl)cyclo-propane-1,1-dicarboxamide]",≤ 10 nM,–,10 to 100 nM
"COc1cc2ncnc(Oc3ccc(NC(=O)C4(C(=O)Nc5ccc(F)cc5)CC4)cc3)c2cc1C(=O)NC[C@H]1CCCN1C(=O)OC(C)(C)C [Compound 119, tert-butyl (2R)-2-[[[4-[4-[[1-[(4-fluoro-phenyl)carbamoyl]cyclo-propane-carbonyl]amino]phenoxy]-7-methoxyquinazoline-6-carbonyl]amino]methyl]pyr-rolidine-1-carboxylate]",100 to 300 nM,–,> 300 nM
"COc1cc2nccc(Oc3ccc(NC(=O)C4(C(=O)Nc5ccc(F)cc5)CC4)cc3Cl)c2nc1OC [Compound 141, 1-N′-[3-chloro-4-[(6,7-dimethoxy-1,5-naphthyridin-4-yl)oxy]phenyl]-1-N-(4-fluorophenyl)cyclo-propane-1,1-dicarboxamide]",10 to 100 nM,–,≤ 10 nM
"COc1cc2ncnc(Oc3ccc(NC(=O)C4(C(=O)Nc5ccc(F)cc5)CC4)cc3Cl)c2nc1OC [Compound 29, 1-N′-[3-chloro-4-(6,7-dimethoxypyrido[3,2-d]pyrimidin-4-yl)oxyphenyl]-1-N-(4-fluorophenyl)cyclo-propane-1,1-dicarboxamide]",10 to 100 nM,–,10 to 100 nM
"COc1cc2ncnc(Oc3ccc(NC(=O)C4(C(=O)Nc5ccc(F)cc5)CC4)cc3)c2cc1C(=O)NC[C@H]1CCCN1 [Compound 121, 1-N′-(4-fluorophenyl)-1-N-[4-[7-methoxy-6-[[(2R)-pyrrolidin-2-yl]methyl-carbamoyl]quinazolin-4-yl]oxyphenyl]cyclopropane-1,1-dicarboxamide]",10 to 100 nM,–,100 to 300 nM
"COc1cc2c(Oc3ccc(NC(=O)C4(C(=O)Nc5ccc(F)cc5)CC4)cc3)ncnc2cn1 [Compound 91, 1-N′-(4-fluorophenyl)-1-N-[4-(6-methoxypyrido[3,4-d]pyrimidin-4-yl)oxyphenyl]cyclopropane-1,1-dicarboxamide]",> 300 nM,–,> 300 nM
"COc1cc2ncnc(Oc3ccc(NC(=O)C4(C(=O)Nc5ccc(F)cc5)CC4)cc3)c2cc1C(=O)NC[C@@H]1CCCN1C(=O)OC(C)(C)C [Compound 120, tert-butyl (2S)-2-[[[4-[4-[[1-[(4-fluoro-phenyl)carbamoyl]cyclo-propane-carbonyl]amino]phenoxy]-7-methoxyquinazoline-6-carbonyl]amino]methyl]pyr-rolidine-1-carboxylate]",> 300 nM,–,> 300 nM
"COc1cc2ncnc(Oc3ccc(NC(=O)C4(C(=O)Nc5ccc(F)cc5)CC4)cc3F)c2nc1OC [Compound 30, 1-N′-[4-(6,7-dimethoxypyrido[3,2-d]pyrimidin-4-yl)oxy-3-fluorophenyl]-1-N-(4-fluorophenyl)cyclopropane-1,1-dicarboxamide]",≤ 10 nM,≤ 10 nM,10 to 100 nM
"COc1cc2nccc(Oc3ccc(NC(=O)C4(C(=O)Nc5ccc(F)cc5)CC4)cc3F)c2nc1OC [Compound 140, 1-N′-[4-[(6,7-dimethoxy-1,5-naphthyridin-4-yl)oxy]-3-fluorophenyl]-1-N-(4-fluorophenyl)cyclopropane-1,1-dicarboxamide]",≤ 10 nM,≤ 10 nM,≤ 10 nM
"COc1cc2ncnc(Oc3ccc(NC(=O)C4(C(=O)Nc5ccc(F)cc5)CC4)cc3)c2cc1C(N)=O [Compound 117, 1-N-[4-(6-carbamoyl-7-methoxyquinazolin-4-yl)oxyphenyl]-1-N′-(4-fluorophenyl)cyclopropane-1,1-dicarboxamide]",≤ 10 nM,–,100 to 300 nM
"COc1cc2ncnc(Oc3ccc(NC(=O)C4(C(=O)Nc5ccc(F)cc5)CC4)cc3)c2cc1C(=O)NC1COC1 [Compound 115, 1-N′-(4-fluorophenyl)-1-N-[4-[7-methoxy-6-(oxetan-3-ylcarbamoyl)quinazolin-4-yl]oxyphenyl]cyclopropane-1,1-dicarboxamide]",> 300 nM,–,100 to 300 nM
"COc1nc2c(Oc3ccc(NC(=O)C4(C(=O)Nc5ccc(F)cc5)CC4)cc3F)ncnc2cc1OCCCN1CCOCC1 [Compound 67, 1-N′-[3-fluoro-4-[6-methoxy-7-(3-morpholin-4-ylpropoxy)pyrido[3,2-d]pyrimidin-4-yl]oxyphenyl]-1-N-(4-fluorophenyl)cyclo-propane-1,1-dicarboxamide]",≤ 10 nM,≤ 10 nM,10 to 100 nM
"COc1cc2ncnc(Oc3ccc(NC(=O)C4(C(=O)Nc5ccc(F)cc5)CC4)cc3)c2cn1 [Compound 104, 1-N′-(4-fluorophenyl)-1-N-[4-(7-methoxypyrido[4,3-d]pyrimidin-4-yl)oxy-phenyl]cyclopropane-1,1-dicarboxamide]",> 300 nM,–,> 300 nM
"COc1cc2ncnc(Oc3ccc(NC(=O)C4(C(=O)Nc5ccc(F)cc5)CC4)cc3)c2cc1C(=O)NC[C@@H]1CCCN1 [Compound 122, 1-N′-(4-fluorophenyl)-1-N-[4-[7-methoxy-6-[[(2S)-pyrrolidin-2-yl]methyl-carbamoyl]quinazolin-4-yl]oxyphenyl]cyclopropane-1,1-dicarboxamide]",10 to 100 nM,–,100 to 300 nM
"COc1nc2c(Oc3ccc(NC(=O)C4(C(=O)Nc5ccc(F)cc5)CC4)cc3)ncnc2cc1OCCCN1CCOCC1 [Compound 65, 1-N′-(4-fluorophenyl)-1-N-[4-[6-methoxy-7-(3-morpholin-4-ylpropoxy)pyrido[3,2-d]pyrimidin-4-yl]oxyphenyl]cyclopropane-1,1-dicarboxamide]",≤ 10 nM,10 to 100 nM,10 to 100 nM
"COc1cc2ncnc(Oc3ccc(NC(=O)C4(C(=O)Nc5ccc(F)cc5)CC4)cc3)c2cc1C(=O)NC1CC1 [Compound 116, 1-N-[4-[6-(cyclopropylcarbamoyl)-7-methoxyquinazolin-4-yl]oxyphenyl]-1-N′-(4-fluorophenyl)cyclopropane-1,1-dicarboxamide]",100 to 300 nM,–,100 to 300 nM
"COc1cc2nccc(Oc3ccc(NC(=O)C4(C(=O)Nc5ccc(F)cc5)CC4)cc3)c2nc1OC [Compound 139, 1-N-[4-[(6,7-dimethoxy-1,5-naphthyridin-4-yl)oxy]phenyl]-1-N′-(4-fluorophenyl)cyclo-propane-1,1-dicarboxamide]",≤ 10 nM,≤ 10 nM,10 to 100 nM
"COc1cc2ncnc(Oc3ccc(NC(=O)C4(C(=O)Nc5ccc(F)cc5)CC4)cc3)c2cc1C(=O)NCCN1CCCC1 [Compound 118, 1-N′-(4-fluorophenyl)-1-N-[4-[7-methoxy-6-(2-pyrrolidin-1-ylethyl-carbamoyl)quinazolin-4-yl]oxyphenyl]cyclopropane-1,1-dicarboxamide]",10 to 100 nM,10 to 100 nM,100 to 300 nM
